System: participants with T1D
Assay: Randomized crossover clinical trial (NCT04201496): CGM glycemic outcomes with 5 mg daily empagliflozin adjunctive to AID (Control-IQ, CIQ) or PLGS (Basal-IQ, BIQ)
Type: in vivo, human
Conditions: for Difference (95% CI): daytime glucose % Time in range of 70 to 180 mg/dL: adjusted for pre-randomization HbA1c
Method: FIG. 2 presents a study analysis relative to baseline, control IQ (CIQ) (e.g., AID), and basal IQ (BIQ) (e.g., PLGS) implementation, according to investigation that is demonstrable of one or more embodiments herein. Therein, an experimental arm (G1, G2) providing an initial daily dose of 5 mg empagliflozin (EMPA) is depicted against a control arm (G3, G4) without such dosing (NOEMPA). Relative characteristics of the analysis are provided below.
Study Design: A single-center, randomized, controlled, unblinded, crossover clinical trial (NCT04201496) compared four parallel groups, two groups in the experimental arm (EMPA) with 5 mg daily empagliflozin as adjunctive therapy to PLGS or AID, and two groups in the control arm (NOEMPA) with no drug and with a PLGS system (Basal-IQ, Tandem Diabetes Care) or AID system (Control-IQ, Tandem Diabetes Care). The groups within each arm differed from one another in the order of the randomly assigned crossover technological intervention, relative to PLGS being followed by AID or AID being followed by PLGS, respectively (FIG. 4). The study protocol was approved by the University of Virginia Institutional Review Board (IRB). An investigational device exemption (IDE), including an investigational new drug (IND) application for empagliflozin, was approved by the FDA. Safety aspects were overseen by an external data and safety monitoring board (DSMB). Participants: Major inclusion criteria were T1D treated with insulin for at least one year, use of continuous subcutaneous insulin infusion therapy for at least six months, age 18-65 yrs., no use of glucose lowering agents other than insulin, and Hb1Ac<9% (75 mmol/mol). Randomization: A (1:1:1:1) randomization assigned participants to either Group 1, AID-EMPA (4 weeks) followed by PLGS-EMPA (2 weeks), Group 2, PLGS-EMPA (2 weeks) followed by AID-EMPA (4 weeks), Group 3, AID-NOEMPA (4 weeks) followed by PLGS-NOEMPA (2 weeks), and Group 4, PLGS-NOEMPA (2 weeks) followed by AID-NOEMPA (4 weeks). Procedures: After confirmation of eligibility, participants underwent study equipment and medication training (experimental arm), or only study equipment training (control arm). Study equipment consisted of Dexcom G6® CGM (Dexcom Inc., San Diego, CA), Contour® Next blood glucose (Ascensia Diabetes Care, Basel, Switzerland) and Precision Xtra® blood ketone meters (Abbott, Alameda, CA) with their respective test strips; infusion sets, and the use of the t:slim X2™ insulin pump with Basal-IQ or Control-IQ technologies (Tandem Diabetes Care, San Diego, CA), according to randomization. […] Participants in the experimental arm were asked to record two days of baseline ketone values before initiating the use of the study drug. Thereafter, participants were directed to use the study CGM with EMPA for 1-2 weeks. A tolerance to the medication was assessed prior to the starting of the next study phase, including adherence to the protocol, ketone testing 2-4 times per day with monitored values not greater than 0.6 mmol/L on at least two successive occasions (the first testing upon waking in a fasted state), no adverse events relating to perineal infection or symptomatic postural hypotension, and no evidence of significant hypoglycemia <54 mg/dL, or any other listed adverse effects of the medication. Participants in the control arm were directed to use the study CGM for 1-2 weeks. Sample Size: The total sample size was projected to be 40 participants, assuming 1) 1:1:1:1 randomization; 2) 90% power and type 1 error a=0.01, further reinforcing the feasibility of hierarchical analyses. The projected recruitment sample was n=50, to accommodate up to 20% attrition rate without sacrificing statistical power. Analytical methods: For the primary analysis, TIR during the day in the 4-week AID period was compared between the two EMPA groups versus the two NOEMPA groups using a linear mixed-effects regression model while adjusting for pre-randomization HbAlc and age. […]

[1] = EMPA minus NOEMPA on same insulin system, adjusted for HbA1c
[2] = daytime (7:00-23:00), head prints CIQ-EMPA vs. BIQ-NOEMPA
[3] = daytime (7:00-23:00), CIQ-EMPA vs. BIQ-NOEMPA, BIQ-EMPA vs. CIQ-NOEMPA
[4] = daytime (7:00-23:00), CIQ-EMPA vs. CIQ-NOEMPA, BIQ-EMPA vs. BIQ-NOEMPA
[5] = daytime (7:00-23:00), n = 16, mean ± SD
[6] = daytime (7:00-23:00), n = 16, median (IQR)
[7] = overall, head prints CIQ-EMPA vs. BIQ-NOEMPA

SMILES: OC[C@H]1O[C@@H](c2ccc(Cl)c(Cc3ccc(O[C@H]4CCOC4)cc3)c2)[C@H](O)[C@@H](O)[C@@H]1O [CIQ-EMPA, empagliflozin]
- 24/7 HBGI - median (IQR) (24/7, n = 17): 2.7(2-4.4)
- 24/7 LBGI - median (IQR) (24/7, n = 17): 0.5(0.4-0.6)
- 24/7 glucose level <70 mg/dL (<3.9 mmol/L) - median % time (IQR) (24/7, n = 17): 1.1(0.5-1.5) %
- 24/7 glucose level <70 mg/dL (<3.9 mmol/L) - median % time (IQR) (24/7, n = 17, listed as AID-EMPA): 1.1(0.5-1.5) %
- 24/7 Mean glucose level - (24/7, n = 17, mean ± SD): 137 ± 19 mg/dL
- 24/7 Mean glucose level - (24/7, n = 17, mean ± SD, listed as AID-EMPA): 137 mg/dL
- daytime TIR mean adjusted difference, amounting to hours per day (AID-EMPA vs AID-NOEMPA, daytime 7:00 to 23:00 h): 1.6 hours per day
- Difference (95% CI): 24/7 HBGI [1]: −2.5(−5.3 to 0.2)
- Difference (95% CI): 24/7 LBGI [1]: 0.06(−0.4 to 0.5)
- Difference (95% CI): 24/7 Mean glucose level [1]: −17.3(−35.4 to 0.8) mg/dL
- Difference (95% CI): 24/7 glucose level <70 mg/dL % time [1]: −1.1(−3.2 to 0.9) percentage points
- Difference (95% CI): Daytime CGM CV [1]: −3.3(−6.1 to −0.5) %
- Difference (95% CI): Daytime CGM SD [1]: −9.3(−17.8 to −0.93) mg/dL
- Difference (95% CI): 24/7 glucose level <70 mg/dL % time (EMPA minus NOEMPA on same insulin system, adjusted for HbA1c, listed as AID-EMPA): −1.1 percentage points
- Difference (95% CI): daytime glucose % Time in range of 70 to 180 mg/dL (EMPA minus NOEMPA on same insulin system): 9.9(0.6 to 19.1) percentage points
- Difference (95% CI): daytime glucose % Time in range of 70 to 180 mg/dL (EMPA minus NOEMPA on same insulin system, listed as AID-EMPA): +9.9 percentage points
- Primary: daytime glucose % Time in range of 70 to 180 mg/dL (3.9-10.0 mmol/L) (daytime 7:00 to 23:00 h, n = 17, mean ± SD): 81 ± 10%
- Primary: daytime glucose % Time in range of 70 to 180 mg/dL (3.9-10.0 mmol/L) (daytime 7:00 to 23:00 h, n = 17, mean ± SD, listed as AID-EMPA): 81+10%
- Difference (95% CI): % CGM time 70-140 mg/dL (<3.9-7.8 mmol/L) [2]: −1.4 percentage points
- Difference (95% CI): % CGM time <60 mg/dL (<3.3 mmol/L) [2]: −0.5 percentage points
- Difference (95% CI): % CGM time >180 mg/dL (>10.0 mmol/L) [2]: −0.8 percentage points
- Difference (95% CI): % CGM time >250 mg/dL (>13.9 mmol/L) [2]: −1.6 percentage points
- Difference (95% CI): % CGM time >300 mg/dL (>16.7 mmol/L) [2]: −0.9 percentage points
- Difference (95% CI): CGM HBGI [2]: −6.3
- Difference (95% CI): CGM LBGI [2]: −0.3
- Difference (95% CI): Mean CGM glucose [2]: 0.2 mg/dL
- Difference (95% CI): % CGM time <70 mg/dL (<3.9 mmol/L) (daytime (7:00-23:00), head prints CIQ-EMPA vs. BIQ-NOEMPA, listed as AID-EMPA): −1 percentage points
- Difference (95% CI): % CGM time 70-140 mg/dL (<3.9-7.8 mmol/L) [3]: 16.2 percentage points
- Difference (95% CI): % CGM time <60 mg/dL (<3.3 mmol/L) [3]: −0.6 percentage points
- Difference (95% CI): % CGM time <70 mg/dL (<3.9 mmol/L) [3]: −0.7 percentage points
- Difference (95% CI): % CGM time >180 mg/dL (>10.0 mmol/L) [3]: −17.6 percentage points
- Difference (95% CI): % CGM time >250 mg/dL (>13.9 mmol/L) [3]: −9.2 percentage points
- Difference (95% CI): % CGM time >300 mg/dL (>16.7 mmol/L) [3]: −3.6 percentage points
- Difference (95% CI): CGM HBGI [3]: −4.4
- Difference (95% CI): CGM LBGI [3]: 0
- Difference (95% CI): CGM SD [3]: -15.5 mg/dL
- Difference (95% CI): Mean CGM glucose [3]: -23.6 mg/dL
- Difference (95% CI): % CGM time <50 mg/dL (<2.8 mmol/L) [4]: −0.2 percentage points
- Difference (95% CI): % CGM time <60 mg/dL (<3.3 mmol/L) [4]: −0.7 percentage points
- Difference (95% CI): % CGM time >180 mg/dL (>10.0 mmol/L) [4]: −10.3 percentage points
- Difference (95% CI): % CGM time >250 mg/dL (>13.9 mmol/L) [4]: −3.8 percentage points
- Difference (95% CI): % CGM time >300 mg/dL (>16.7 mmol/L) [4]: −1.3 percentage points
- Difference (95% CI): CGM CV (%) [4]: −3.3%
- Difference (95% CI): CGM HBGI [4]: −2.2
- Difference (95% CI): CGM LBGI [4]: 0
- Difference (95% CI): CGM SD [4]: -9.3 mg/dL
- Difference (95% CI): Mean CGM glucose [4]: -14.6 mg/dL
- % CGM time 70-140 mg/dL (3.9-7.8 mmol/L) [5]: 56.7 ± 13.4%
- % CGM time 70-180 mg/dL (3.9-10.0 mmol/L) [5]: 80.6 ± 10.5%
- CGM CV (%) [5]: 30.4 ± 3.5%
- CGM SD [5]: 42.6 ± 9.7 mg/dL
- Mean CGM glucose [5]: 139 ± 19 mg/dL
- % CGM time <50 mg/dL (<2.8 mmol/L) [6]: 0(0-0.1) %
- % CGM time <60 mg/dL (<3.3 mmol/L) [6]: 0.4(0-0.5) %
- % CGM time <70 mg/dL (<3.9 mmol/L) [6]: 1.2(0.6-1.7) %
- % CGM time >180 mg/dL (>10.0 mmol/L) [6]: 15.8(6.2-26) %
- % CGM time >250 mg/dL (>13.9 mmol/L) [6]: 1.2(0.4-3.7) %
- % CGM time >300 mg/dL (>16.7 mmol/L) [6]: 0(0-0.6) %
- CGM HBGI [6]: 3.4(1.9-5.5)
- CGM LBGI [6]: 0.5(0.4-0.6)
- Daytime CGM CV - % (daytime, n = 17, mean ± SD): 30.4 ± 3.5%
- Daytime CGM SD - (daytime, n = 17, mean ± SD): 42.6 ± 9.8 mg/dL
- Difference: CGM HBGI [7]: −1.1
- Difference: CGM LBGI [7]: −0.3
- Difference: % CGM time <70 mg/dL (<3.9 mmol/L) (overall, head prints CIQ-EMPA vs. BIQ-NOEMPA, listed as AID-EMPA): −1.2 percentage points
